Results as given in patent publication US6914160B1, “Oxytocin inhibitors” (Pfizer Inc, priority 2002, dated 2005).

Target: T1, Oxytocin Receptor (Homo sapiens, UniProt P30559)
T1 construct: expressed in transfected cells; host or cells: CHO cells (membrane preparation)
T1 sequence (P30559 1-389): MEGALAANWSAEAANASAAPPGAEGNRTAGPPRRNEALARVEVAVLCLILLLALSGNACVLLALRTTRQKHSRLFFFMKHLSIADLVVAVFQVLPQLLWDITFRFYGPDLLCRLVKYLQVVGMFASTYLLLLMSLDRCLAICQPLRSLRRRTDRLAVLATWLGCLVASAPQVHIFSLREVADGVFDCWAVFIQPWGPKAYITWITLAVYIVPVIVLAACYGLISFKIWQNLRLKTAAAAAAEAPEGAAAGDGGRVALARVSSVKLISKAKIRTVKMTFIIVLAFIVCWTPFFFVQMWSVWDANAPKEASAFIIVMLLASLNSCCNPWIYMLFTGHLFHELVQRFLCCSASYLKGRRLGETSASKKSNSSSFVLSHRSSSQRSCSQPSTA
Experiment: Oxytocin Receptor Ligand Binding IC50 Assay (125I-OVTA SPA, CHO cell membranes)
Protocol: A. Oxytocin Receptor Ligand Binding IC50 Assay
• ii) Compound Dilution (Final concentration of 10 μM in the assay) • a) HTA stock compounds at 4 mM in 100% DMSO • b) Dilute compounds to 200 μM in dH2O. • c) Further dilute compounds to 100 μM in 100 mM Tris-HCl, pH 7.8, 20 mM MgCl2. This gives final concentrations of 2.5% DMSO, 50 mM Tris-HCl, pH 7.8, 10 mM MgCl2. • d) Using the diluted stock, prepare 1:2 dilutions over 10 points in 50 mM Tris-HCl, pH 7.8, 10 mM MgCl2, 2.5% DMSO with the TECAN Genesis. • e) Dispense 10 μl of the compound into a 384 well Optiplate according to the plate layout required for analysis by ECADA leaving space for the standard (arg^8)-vasotocin IC50. […] Protein concentrations are then measured and the membrane suspension is finally frozen in aliquots at a minimum of 5 mg/ml at −80° C. vi) Assay • Membranes are thawed on ice before diluting to 1 mg/ml in assay buffer. […] A 5 μl sample is then counted in duplicate using liquid scintillation counting (protocol 61 on Wallac Counter) and the concentration of the ligand is calculated (see example below). […] Using the measured concentration, the ^125I-OVTA is diluted to 0.3 nM in assay buffer. […]

| Ki [nM] | SMILES |
| --- | --- |
| 9.4 | Cc1ccc(CN(C(=O)c2c(C)cc(C)nc2N)C(C(N)=O)c2ccc3c(c2)OCCO3)cc1 (centres unmarked) [Example 257, 2-Amino-N-[carbamoyl-(2,3-dihydro-benzo[1.4]dioxin-6-yl)-methyl]-4,6-dimethyl-N-(4-methyl-benzyl)-nicotinamide] |
| 9.4 | COc1cccc(C(C(N)=O)N(Cc2ccc(C)cc2)C(=O)c2c(C)cc(C)nc2N)c1 (single isomer, unassigned) [Example 258, (R or S)-2-Amino-N-[carbamoyl-[(3-methoxyphenyl)-methyl]-4,6-dimethyl-N-(4-methyl-benzyl)-nicotinamide] |
